Experimental data published in publication PMC9832397 (Nature chemistry, 2022).
One block for each compound: values may come before it.

Experiments:
[1] = molecular target: T1, MAT (malonyl-/acetyl transferase domain of murine FAS) (Mus musculus, UniProt P19096); test: enzyme-coupled fluorometric transacylation assay; format: biochemical; conditions: individual domains; acceptor DEBS ACP6 presumed
T1 sequence (P19096 488-816 limits assumed): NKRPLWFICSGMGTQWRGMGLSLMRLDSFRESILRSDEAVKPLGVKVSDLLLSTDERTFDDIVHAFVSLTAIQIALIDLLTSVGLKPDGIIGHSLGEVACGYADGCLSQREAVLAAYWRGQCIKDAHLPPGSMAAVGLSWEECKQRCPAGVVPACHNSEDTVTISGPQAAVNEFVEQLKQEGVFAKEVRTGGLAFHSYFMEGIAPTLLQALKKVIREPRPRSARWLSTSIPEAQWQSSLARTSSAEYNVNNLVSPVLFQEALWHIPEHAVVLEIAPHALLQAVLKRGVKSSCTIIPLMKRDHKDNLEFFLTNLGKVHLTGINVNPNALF

DEBS M6+TE (WT) = DEBS M6+TE (WT) (Saccharopolyspora erythraea, UniProt Q03133); test: NADPH consumption assay; format: biochemical; conditions: 400 mM phosphate pH 7.2, 25 °C
Chain of DEBS M6+TE (WT) (Q03133 1470-3172 limits assumed): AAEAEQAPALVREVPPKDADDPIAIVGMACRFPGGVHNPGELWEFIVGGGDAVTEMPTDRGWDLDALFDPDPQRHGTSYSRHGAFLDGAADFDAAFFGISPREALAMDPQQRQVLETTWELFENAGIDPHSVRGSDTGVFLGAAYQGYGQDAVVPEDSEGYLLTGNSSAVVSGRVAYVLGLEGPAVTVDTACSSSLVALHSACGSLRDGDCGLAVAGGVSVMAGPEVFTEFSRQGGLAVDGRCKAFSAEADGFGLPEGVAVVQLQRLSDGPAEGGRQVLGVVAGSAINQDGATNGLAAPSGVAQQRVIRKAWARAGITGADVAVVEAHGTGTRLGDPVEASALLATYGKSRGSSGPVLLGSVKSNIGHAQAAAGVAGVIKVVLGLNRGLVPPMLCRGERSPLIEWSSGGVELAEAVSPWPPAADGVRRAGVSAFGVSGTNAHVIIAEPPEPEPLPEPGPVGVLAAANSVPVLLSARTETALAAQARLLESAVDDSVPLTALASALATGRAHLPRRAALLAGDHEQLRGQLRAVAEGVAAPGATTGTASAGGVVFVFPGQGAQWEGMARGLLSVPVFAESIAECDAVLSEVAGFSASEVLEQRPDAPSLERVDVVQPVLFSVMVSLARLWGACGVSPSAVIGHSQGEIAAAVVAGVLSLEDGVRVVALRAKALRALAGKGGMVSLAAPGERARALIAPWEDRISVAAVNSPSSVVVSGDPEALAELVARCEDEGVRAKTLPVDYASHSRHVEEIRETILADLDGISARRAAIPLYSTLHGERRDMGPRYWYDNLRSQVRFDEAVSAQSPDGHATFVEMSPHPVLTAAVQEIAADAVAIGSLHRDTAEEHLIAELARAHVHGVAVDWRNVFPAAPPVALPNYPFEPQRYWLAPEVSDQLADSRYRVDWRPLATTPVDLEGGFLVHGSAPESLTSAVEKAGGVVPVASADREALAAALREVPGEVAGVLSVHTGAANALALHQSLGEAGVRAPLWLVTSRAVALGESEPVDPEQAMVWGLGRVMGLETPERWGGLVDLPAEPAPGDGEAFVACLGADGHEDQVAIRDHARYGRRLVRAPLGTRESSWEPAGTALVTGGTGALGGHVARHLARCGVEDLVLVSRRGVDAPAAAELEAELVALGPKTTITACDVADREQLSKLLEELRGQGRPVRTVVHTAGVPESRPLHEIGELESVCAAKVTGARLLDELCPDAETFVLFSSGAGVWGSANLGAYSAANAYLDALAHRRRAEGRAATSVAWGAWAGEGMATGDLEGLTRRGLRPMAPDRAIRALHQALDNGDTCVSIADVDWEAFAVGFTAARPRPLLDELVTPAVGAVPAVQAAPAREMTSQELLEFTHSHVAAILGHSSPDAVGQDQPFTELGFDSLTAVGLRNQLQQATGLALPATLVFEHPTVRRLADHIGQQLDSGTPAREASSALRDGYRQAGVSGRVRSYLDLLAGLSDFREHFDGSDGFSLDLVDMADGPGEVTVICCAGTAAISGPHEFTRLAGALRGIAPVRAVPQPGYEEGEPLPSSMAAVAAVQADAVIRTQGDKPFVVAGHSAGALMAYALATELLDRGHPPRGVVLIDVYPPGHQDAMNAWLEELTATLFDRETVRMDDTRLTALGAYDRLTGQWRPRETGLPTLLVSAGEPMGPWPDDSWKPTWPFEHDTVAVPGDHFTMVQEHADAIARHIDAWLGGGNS

[2] = molecular target: DEBS module 6 including its C-terminal TE domain (DEBS M6+TE), wildtype (Saccharopolyspora erythraea); test: SEC

Chain of DEBS module 6 including its C-terminal TE domain (DEBS M6+TE), wildtype (domain or fragment) (Q03133 2-3172): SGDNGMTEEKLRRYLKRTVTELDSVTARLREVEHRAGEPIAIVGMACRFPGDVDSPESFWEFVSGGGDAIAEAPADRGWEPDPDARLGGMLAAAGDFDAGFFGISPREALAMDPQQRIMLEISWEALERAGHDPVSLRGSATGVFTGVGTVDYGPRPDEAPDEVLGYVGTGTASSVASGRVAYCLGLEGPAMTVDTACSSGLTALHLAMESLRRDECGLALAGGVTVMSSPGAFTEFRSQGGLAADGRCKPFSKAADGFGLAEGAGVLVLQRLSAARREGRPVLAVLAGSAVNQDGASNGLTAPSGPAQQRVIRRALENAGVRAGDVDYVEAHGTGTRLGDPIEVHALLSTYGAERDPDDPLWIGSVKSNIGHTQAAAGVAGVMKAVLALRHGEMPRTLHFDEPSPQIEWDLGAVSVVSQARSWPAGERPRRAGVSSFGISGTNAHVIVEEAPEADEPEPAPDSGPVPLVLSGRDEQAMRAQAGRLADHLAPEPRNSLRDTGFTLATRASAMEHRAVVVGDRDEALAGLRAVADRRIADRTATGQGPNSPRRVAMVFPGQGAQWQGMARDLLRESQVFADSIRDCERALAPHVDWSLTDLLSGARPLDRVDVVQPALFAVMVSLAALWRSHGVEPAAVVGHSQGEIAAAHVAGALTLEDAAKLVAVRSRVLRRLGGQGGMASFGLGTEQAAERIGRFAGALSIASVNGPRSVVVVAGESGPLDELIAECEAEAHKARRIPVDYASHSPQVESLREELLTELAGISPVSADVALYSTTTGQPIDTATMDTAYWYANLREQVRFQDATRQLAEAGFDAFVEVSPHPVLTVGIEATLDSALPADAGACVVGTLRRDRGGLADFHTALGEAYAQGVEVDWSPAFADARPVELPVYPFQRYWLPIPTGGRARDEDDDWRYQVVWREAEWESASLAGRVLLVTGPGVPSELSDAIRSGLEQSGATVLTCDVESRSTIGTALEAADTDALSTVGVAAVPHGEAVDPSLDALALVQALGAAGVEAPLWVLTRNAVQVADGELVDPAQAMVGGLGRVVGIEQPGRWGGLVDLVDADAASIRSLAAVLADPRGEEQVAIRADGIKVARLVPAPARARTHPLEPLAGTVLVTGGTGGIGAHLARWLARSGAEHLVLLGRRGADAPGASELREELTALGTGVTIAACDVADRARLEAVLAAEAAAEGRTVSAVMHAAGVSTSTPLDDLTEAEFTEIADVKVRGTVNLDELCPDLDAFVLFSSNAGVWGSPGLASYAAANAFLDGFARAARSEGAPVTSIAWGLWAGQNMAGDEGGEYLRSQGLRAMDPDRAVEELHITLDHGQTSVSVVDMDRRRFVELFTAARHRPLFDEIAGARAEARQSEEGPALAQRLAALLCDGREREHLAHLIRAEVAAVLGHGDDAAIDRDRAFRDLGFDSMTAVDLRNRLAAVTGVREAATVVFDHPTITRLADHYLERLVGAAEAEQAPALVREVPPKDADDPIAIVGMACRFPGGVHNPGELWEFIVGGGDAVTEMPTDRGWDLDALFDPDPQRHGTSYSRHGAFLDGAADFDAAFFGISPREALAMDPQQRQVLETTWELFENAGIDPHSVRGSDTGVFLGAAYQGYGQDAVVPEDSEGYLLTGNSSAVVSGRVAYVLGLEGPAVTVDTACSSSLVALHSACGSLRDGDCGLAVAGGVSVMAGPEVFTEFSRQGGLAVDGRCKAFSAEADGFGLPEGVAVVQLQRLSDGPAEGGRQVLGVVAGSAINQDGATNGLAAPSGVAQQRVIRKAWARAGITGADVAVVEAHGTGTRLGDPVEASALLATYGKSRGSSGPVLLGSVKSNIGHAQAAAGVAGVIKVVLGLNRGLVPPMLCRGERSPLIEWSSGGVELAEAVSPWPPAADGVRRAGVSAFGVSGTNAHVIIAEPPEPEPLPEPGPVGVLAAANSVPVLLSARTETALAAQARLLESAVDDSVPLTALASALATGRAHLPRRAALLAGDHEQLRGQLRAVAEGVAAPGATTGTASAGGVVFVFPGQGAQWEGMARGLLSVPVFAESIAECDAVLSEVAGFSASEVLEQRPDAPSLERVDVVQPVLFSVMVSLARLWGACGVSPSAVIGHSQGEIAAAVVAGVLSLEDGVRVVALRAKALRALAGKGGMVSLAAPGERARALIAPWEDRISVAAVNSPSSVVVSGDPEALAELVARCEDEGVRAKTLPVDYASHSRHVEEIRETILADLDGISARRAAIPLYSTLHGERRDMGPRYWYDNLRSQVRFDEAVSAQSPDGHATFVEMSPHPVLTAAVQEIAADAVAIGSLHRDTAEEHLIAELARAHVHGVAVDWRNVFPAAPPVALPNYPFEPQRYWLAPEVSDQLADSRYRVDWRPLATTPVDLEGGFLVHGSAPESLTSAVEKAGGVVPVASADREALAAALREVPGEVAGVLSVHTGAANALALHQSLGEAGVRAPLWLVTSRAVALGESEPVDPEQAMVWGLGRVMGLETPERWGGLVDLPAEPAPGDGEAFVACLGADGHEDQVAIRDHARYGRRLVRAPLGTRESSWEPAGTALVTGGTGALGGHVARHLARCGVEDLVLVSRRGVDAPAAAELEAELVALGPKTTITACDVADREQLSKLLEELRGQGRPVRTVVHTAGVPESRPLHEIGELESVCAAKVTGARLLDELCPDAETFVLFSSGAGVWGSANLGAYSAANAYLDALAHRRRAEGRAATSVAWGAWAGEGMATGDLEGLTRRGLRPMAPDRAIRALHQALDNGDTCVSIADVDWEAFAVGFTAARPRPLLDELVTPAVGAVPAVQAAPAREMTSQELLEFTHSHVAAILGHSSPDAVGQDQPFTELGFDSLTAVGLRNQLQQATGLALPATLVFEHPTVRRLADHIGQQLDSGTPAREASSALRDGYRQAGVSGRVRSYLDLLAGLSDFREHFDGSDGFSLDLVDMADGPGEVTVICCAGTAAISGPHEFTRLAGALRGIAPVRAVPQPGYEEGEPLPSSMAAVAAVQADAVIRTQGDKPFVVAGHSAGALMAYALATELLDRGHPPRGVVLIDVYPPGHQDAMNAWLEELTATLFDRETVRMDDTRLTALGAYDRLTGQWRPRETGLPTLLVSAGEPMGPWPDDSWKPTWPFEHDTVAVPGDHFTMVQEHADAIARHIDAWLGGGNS

Compound: CC(C)(COP(=O)(O)OP(=O)(O)OC[C@H]1O[C@@H](n2cnc3c(N)ncnc32)[C@H](O)[C@@H]1OP(=O)(O)O)[C@@H](O)C(=O)NCCC(=O)NCCSC(=O)C(F)C(=O)O (mixture of isomers) [compound 1, F-Mal-CoA]
Km [1]: we observed excellent transfer kinetics of MAT for F-Mal-CoA

Compound: CC(F)(C(=O)O)C(=O)SCCNC(=O)CCNC(=O)[C@H](O)C(C)(C)COP(=O)(O)OP(=O)(O)OC[C@H]1O[C@@H](n2cnc3c(N)ncnc32)[C@H](O)[C@@H]1OP(=O)(O)O (mixture of isomers) [compound 17, F-MM-CoA]
Km [1]: the MAT showed excellent transfer kinetics for F-MM-CoA

Compound: CC(C(=O)O)C(=O)SCCNC(=O)CCNC(=O)[C@H](O)C(C)(C)COP(=O)(O)OP(=O)(O)OC[C@H]1O[C@@H](n2cnc3c(N)ncnc32)[C@H](O)[C@@H]1OP(=O)(O)O (some centres unmarked) [MM-CoA]
turnover rate (DEBS M6+TE (WT); diketide 2, NADPH): Turnover rates for the WT-, H1- and H2-mediated formation of TKLs

Compound: CC[C@@H](O)[C@H](C)C(=O)SCCNC(C)=O [compound 2, (2S,3R)-2-methyl-3-hydroxypentanoyl-N-acetylcysteamine thioester]
turnover rate (DEBS M6+TE (WT); MM-CoA, NADPH): Turnover rates for the WT-, H1- and H2-mediated formation of TKLs

stoichiometry N [2]: 2
Compound: DEBS module 6 including its C-terminal TE domain (DEBS M6+TE), wildtype (domain or fragment)
